# Experimental data reported in patent publication US20080025960A1, “Detergents with stabilized enzyme systems” (priority 2006, published 2008).
# Columns and labels:
# Format in all cases: biochemical
# [1] = biological target: T1, glucose oxidase (Aspergillus niger, UniProt P13006); test: Hydrogen peroxide generation by glucose oxidase after dilution of the mixture in laundry wash liquor, dipsticks; conditions: for Hydrogen Peroxide Generation, PPM H2O2 / H2O2 PPM: wash liquor, 1 mM glucose; for Hydrogen Peroxide Generation, PPM H2O2: 1 PPM oxidase; for character of glucose oxidase inhibition: inhibited at high substrate concentration in detergent, inhibition disappears upon dilution in wash water, concentration-dependent; for hydrogen peroxide produced: liquid detergent formulations after 3 weeks of storage with inhibitor, diluted in wash liquor; for H2O2 generated: wash liquor control containing buffer
# T1 construct: purchased Genencor OXYGO L-5000
# T1 sequence (P13006 17-605): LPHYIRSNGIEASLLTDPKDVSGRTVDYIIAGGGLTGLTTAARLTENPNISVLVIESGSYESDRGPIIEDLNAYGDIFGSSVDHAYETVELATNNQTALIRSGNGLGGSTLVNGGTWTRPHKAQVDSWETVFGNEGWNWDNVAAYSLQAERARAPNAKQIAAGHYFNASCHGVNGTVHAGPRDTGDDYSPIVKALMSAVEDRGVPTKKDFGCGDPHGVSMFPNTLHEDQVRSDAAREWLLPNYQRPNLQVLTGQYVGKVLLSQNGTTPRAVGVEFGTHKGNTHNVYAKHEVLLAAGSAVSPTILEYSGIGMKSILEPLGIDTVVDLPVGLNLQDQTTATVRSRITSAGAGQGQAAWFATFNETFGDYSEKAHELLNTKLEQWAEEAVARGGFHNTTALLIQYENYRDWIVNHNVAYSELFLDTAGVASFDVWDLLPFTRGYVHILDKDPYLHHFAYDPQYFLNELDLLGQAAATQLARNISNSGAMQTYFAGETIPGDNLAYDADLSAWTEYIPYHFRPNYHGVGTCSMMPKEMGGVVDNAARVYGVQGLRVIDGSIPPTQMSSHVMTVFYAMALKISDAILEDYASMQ
# Description: In these experiments, 100 mM Tris pH 8.3 with 0.005% TWEEN®-100 surfactant was used as a positive control. The choice of pH 8.3 was based upon the measured pH of the AATCC detergent. Three two-ml tubes containing 0.990 g of AATCC detergent (lot # 01282004) and another three tubes with 0.990 g of control buffer were weighed. Then, 90 mg (500 mM) glucose substrate was added to each tube. […] All of the tubes were placed on a rotary plate for an hour to allow good mixing and solubilization of glucose into the detergent. Then, 6 tubes containing five-ml wash water (5 mM HEPES with 6 GPG, pH 8) were prepared. Next, 500 PPM (0.5 mg, 14.88 ul) glucose oxidase (OXYGO™ L-5000, 5379 U/ml; 33.6 mg/ml; Genencor) was added to six 2-ml tubes (three with glucose/bisulfite containing control buffers and three with glucose/bisulfite containing AATCC detergent). All of the tubes were then set on the rotary plate (60 rpm) at room temperature. H2O2 production was measured using dipsticks (peroxidase/ABTS), as described in Example 1, for t=0+ minutes, 12 minutes, and 30 minutes. Immediately after addition of the enzyme to the detergent and control mixtures, 10 ul of the mixture were removed and mixed with 5 ml of wash water. All of the tubes were also then checked for hydrogen peroxide using dipsticks at 12 and 30 minutes. With 5 ml wash liquor, the final glucose oxidase enzyme concentration was 1 PPM and the glucose concentration was 1 mM.
# In these experiments, 100 mM Tris pH 8.3 with 0.005% TWEEN®-100 surfactant was used as a positive control. The choice of pH 8.3 was based upon the measured pH of the AATCC detergent. Three two-ml tubes containing 0.990 g of AATCC detergent (lot # 01282004) and another three tubes with 0.990 g of control buffer were weighed. Then, 90 mg (500 mM) glucose substrate was added to each tube. Then, 100, 50, and 10 mM sodium metabisulfite were added to each tube respectively (i.e., both control buffer and AATCC detergent-containing tubes). All of the tubes were placed on a rotary plate for an hour to allow good mixing and solubilization of glucose into the detergent. Then, 6 tubes containing five-ml wash water (5 mM HEPES with 6 GPG, pH 8) were prepared. Next, 500 PPM (0.5 mg, 14.88 ul) glucose oxidase (OXYGO™ L-5000, 5379 U/ml; 33.6 mg/ml; Genencor) was added to six 2-ml tubes (three with glucose/bisulfite containing control buffers and three with glucose/bisulfite containing AATCC detergent). All of the tubes were then set on the rotary plate (60 rpm) at room temperature. H2O2 production was measured using dipsticks (peroxidase/ABTS), as described in the above Examples, for t=0+ minutes, 12 minutes, and 30 minutes. Immediately after addition of the enzyme to the detergent and control mixtures, 10 ul of the mixture were removed and mixed with 5 ml of wash water. All of the tubes were also then checked for hydrogen peroxide using dipsticks at 12 and 30 minutes. With 5 ml wash liquor, the final glucose oxidase enzyme concentration was 1 PPM and the glucose concentration was 1 mM.
# [2] = biological target: T2, choline oxidase (Arthrobacter globiformis, UniProt Q7X2H8); test: H2O2 in wash liquor with choline oxidase, choline chloride and inhibitor; conditions: 2 mM choline chloride, 0.02U choline oxidase, 0.2 mM sodium bisulfite inhibitor (pH7)
# T2 sequence (Q7X2H8 1-546): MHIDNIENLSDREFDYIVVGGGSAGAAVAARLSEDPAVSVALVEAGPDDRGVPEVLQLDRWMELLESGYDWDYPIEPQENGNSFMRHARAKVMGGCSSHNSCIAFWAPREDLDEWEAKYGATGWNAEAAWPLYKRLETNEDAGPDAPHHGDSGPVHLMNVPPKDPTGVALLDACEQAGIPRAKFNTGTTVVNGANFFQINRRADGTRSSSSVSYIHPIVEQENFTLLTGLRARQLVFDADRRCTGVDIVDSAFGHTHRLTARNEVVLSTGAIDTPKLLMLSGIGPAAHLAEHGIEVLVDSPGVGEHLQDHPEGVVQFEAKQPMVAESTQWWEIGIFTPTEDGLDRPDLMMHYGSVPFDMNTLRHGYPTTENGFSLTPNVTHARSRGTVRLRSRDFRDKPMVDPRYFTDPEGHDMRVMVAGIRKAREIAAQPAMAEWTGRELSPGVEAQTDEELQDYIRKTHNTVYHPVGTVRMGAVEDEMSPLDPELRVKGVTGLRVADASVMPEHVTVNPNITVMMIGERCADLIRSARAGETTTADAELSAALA
# Description: (§1) The experiments were conducted as described in Example 1. Choline oxidase produces two moles of H2O2 per mole of choline. The results obtained in these experiments confirmed that choline oxidase was stable in AATCC detergent over 24 hour period tested in presence of choline and inhibitors. […] Upon dilution in wash liquor, detergent containing choline oxidase, choline chloride and an inhibitor (e.g., sodium hydrogen sulfite or 2-amino,2-methyl,1-propanol) produced H2O2 over time, as indicated in Table 5.
# [3] = biological target: T2, choline oxidase; test: H2O2 in control buffer or AATCC liquid detergent stock with choline oxidase, choline and inhibitor; conditions: for H2O2 PPM: T = 0+, 12, 30 and 60, 1M choline chloride, 10U choline oxidase, 100 mM sodium bisulfite inhibitor (pH7)
# Description: In this Example, experiments conducted to assess the stabilization of choline oxidase in the presence of its substrate (i.e., choline) and an inhibitor (i.e., sodium bisulfite and 2-amino,2-methyl,1-propanol) is described. In these experiments, AATCC standard detergent was used.
# as §1
structure (smiles),measurement,setting,value
"O=S([O-])O.[Na+] [bisulfite, sodium hydrogen sulfite]","Hydrogen Peroxide Generation, PPM H2O2","[1]; AATCC Detergent, T = 12 (second line so headed, after the T = 30 lines), 0.2 mM bisulfite",˜10 PPM
same,"Hydrogen Peroxide Generation, PPM H2O2","[1]; AATCC Detergent, T = 12 min, 0.02 mM bisulfite",3 PPM
same,"Hydrogen Peroxide Generation, PPM H2O2","[1]; AATCC Detergent, T = 12 min, 0.1 mM bisulfite",3 PPM
same,"Hydrogen Peroxide Generation, PPM H2O2","[1]; AATCC Detergent, T = 12 min, 0.2 mM bisulfite",3 PPM
same,"Hydrogen Peroxide Generation, PPM H2O2","[1]; AATCC Detergent, T = 30 min, 0.02 mM bisulfite",10 PPM
same,"Hydrogen Peroxide Generation, PPM H2O2","[1]; AATCC Detergent, T = 30 min, 0.1 mM bisulfite",˜10 PPM
same,"Hydrogen Peroxide Generation, PPM H2O2","[1]; Control Buffer, T = 12 (second line so headed, after the T = 30 lines), 0.2 mM bisulfite",˜3 PPM
same,"Hydrogen Peroxide Generation, PPM H2O2","[1]; Control Buffer, T = 30 min, 0.02 mM bisulfite",10 PPM
same,"Hydrogen Peroxide Generation, PPM H2O2","[1]; Control Buffer, T = 30 min, 0.1 mM bisulfite",˜10 PPM
same,character of glucose oxidase inhibition,[1],reversible inhibitor
same,hydrogen peroxide generated,"[1]; wash liquor containing AATCC detergent, all three bisulfite inhibitor concentrations, 12 minutes",> 3 PPM
same,hydrogen peroxide generated,"[1]; wash liquor with AATCC detergent, all three bisulfite inhibitor concentrations, 30 minutes",~10 PPM
same,H2O2 PPM,"[2]; AATCC Detergent, T = 0+",1 PPM
same,H2O2 PPM,"[2]; AATCC Detergent, T = 12 min",10 PPM
same,H2O2 PPM,"[2]; AATCC Detergent, T = 30 min",> 10 PPM
same,H2O2 PPM,"[2]; AATCC Detergent, T = 60 min",30 PPM
same,H2O2 PPM,"[2]; Control Buffer, T = 0+",1 PPM
same,H2O2 PPM,"[2]; Control Buffer, T = 12 min",10 PPM
same,H2O2 PPM,"[2]; Control Buffer, T = 30 min",> 10 PPM
same,H2O2 PPM,"[2]; Control Buffer, T = 60 min",30 PPM
same,H2O2 PPM,[3]; AATCC Detergent,0 PPM
same,H2O2 PPM,[3]; Control Buffer,0 PPM
same,premature generation of H2O2 in AATCC detergent stock,[3]; sodium hydrogen sulfite 100 mM concentration,able to stop premature generation of H2O2
same,character of choline oxidase inhibition,[3]; sodium hydrogen sulfite at 100 mM concentration tested,reversible inhibitor
O=S([O-])S(=O)(=O)[O-].[Na+].[Na+] [sodium metabisulfite],H2O2 PPM,"[1]; AATCC Detergent, T = 12 min, 1 PPM enzyme, 0.2 mM sodium metabisulfite",3 PPM
same,H2O2 PPM,"[1]; AATCC Detergent, T = 30 min, 1 PPM enzyme, 0.2 mM sodium metabisulfite",˜10 PPM
same,H2O2 PPM,"[1]; AATCC Detergent, T = 60 min, 1 PPM glucose oxidase, 0.2 mM sodium metabisulfite",>10 PPM
same,H2O2 PPM,"[1]; Control Buffer, T = 12 min, 1 PPM enzyme, 0.2 mM sodium metabisulfite (100 mM in formulation)",~3 PPM
same,H2O2 PPM,"[1]; Control Buffer, T = 12 min, 1 PPM enzyme, 0.2 mM sodium metabisulfite (100 mM in formulation), listed as sodium metabisulftie",1 PPM
same,H2O2 PPM,"[1]; Control Buffer, T = 30 min, 1 PPM enzyme, 0.2 mM sodium metabisulfite",3 PPM
same,H2O2 PPM,"[1]; Control Buffer, T = 60 min, 1 PPM glucose oxidase, 0.2 mM sodium metabisulfite",10 PPM
same,character of glucose oxidase inhibition,[1],reversible inhibitor
same,hydrogen peroxide produced,[1]; 12 minutes,3 PPM
same,hydrogen peroxide produced,[1]; 30 minutes,~10 PPM
same,hydrogen peroxide generated,"[1]; wash liquor containing AATCC detergent, all three metabisulfite inhibitor concentrations, 12 minutes",> 3 PPM
same,H2O2 generated,"[1]; 10 mM metabisulfite (formulation), 12 minutes",about 10 PPM
same,H2O2 generated,"[1]; 50 mM metabisulfite (formulation), 12 minutes",about 10 PPM
same,hydrogen peroxide generated,"[1]; wash liquor with AATCC detergent, all three metabisulfite inhibitor concentrations, 30 minutes",~10 PPM
